Laboratory results: patent US20170152241A9, “BICYCLIC DERIVATIVE CONTAINING PYRIMIDINE RING, AND PREPARATION METHOD THEREFOR” (YUHAN CORPORATION, priority 2013, published 2017)
Counter-ions that a name gives are not always drawn.

target: T1, human 5-HT4(a) (Homo sapiens, UniProt Q13639); assay: Evaluation of agonistic activity in CHO-K1 cells expressing human 5-HT4(a) (GeneBlAzer HTR4-CRE-bla, beta-lactamase reporter); type: cell-based; conditions: 5 hours incubation, 8 concentrations
T1 construct: host or cells: GeneBlAzer HTR4-CRE-bla CHO-K1 cells
T1 sequence (Q13639 1-387 isoform Q13639-2): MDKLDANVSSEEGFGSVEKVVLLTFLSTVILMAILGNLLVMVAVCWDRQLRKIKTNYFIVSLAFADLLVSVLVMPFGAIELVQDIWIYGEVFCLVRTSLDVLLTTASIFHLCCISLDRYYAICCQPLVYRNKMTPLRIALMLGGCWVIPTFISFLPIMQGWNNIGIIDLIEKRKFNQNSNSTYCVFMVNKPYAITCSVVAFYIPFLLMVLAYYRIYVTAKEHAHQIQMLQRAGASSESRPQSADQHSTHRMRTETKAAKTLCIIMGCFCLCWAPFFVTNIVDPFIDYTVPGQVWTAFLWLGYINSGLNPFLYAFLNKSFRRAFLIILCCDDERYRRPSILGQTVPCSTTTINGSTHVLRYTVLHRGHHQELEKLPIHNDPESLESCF
Description: Evaluation of Agonistic Activity in CHO-K1 Cells Expressing Human 5-HT4(a)
As CHO-K1 cells stably expressing human 5-HT4(a), we used the GeneBlAzer HTR4-CRE-bla CHO-K1 cells (Invitrogen corp.). The cells were cultured in DMEM medium supplemented with 10% bovine fetal serum (FBS), 25 mM HEPES (pH 7.4), 600 μg/ml Hygromycin B, 0.1 mM non-essential amino acids, 100 unit/ml penicillin and 100 μg/ml streptomycin under the condition of 37° C. and 5% CO2. Subcultures were performed three times per a week, each being at less than 80% confluence. At the previous day before treating test compounds, the cells were collected by using 0.5% trypsin/EDTA, and then diluted with a DMEM supplemented with 1% FBS, 25 mM HEPES and 0.1 mM non-essential amino acids into 3.125×10^5 cells/ml. 32 μl of the diluted cells were added into 384-well plate (10,000 cells/well) and then incubated overnight. The compounds to be used as a test material and a control drug were prepared as 500× of the various final treating concentrations of the drug with 100% DMSO, and then treated to the medium after diluting them to 100-folds to be 1% of the final DMSO concentration equally. After culturing overnight, 8 μl of the medium having 1% of DMSO was added into the cell-free control well and the non-stimulating control well, respectively. 8 μl of the control drug or the test material (which had been prepared by diluting 100-folds with the medium as mentioned in the above) having 1% of DMSO, were added to the respective remaining wells. After culturing in an incubator for 5 hours, the wells of the 384-plate were treated with the substrate solution (8 μl/well) prepared according to the vendor's instruction (i.e. Invitrogen's instruction), and then incubated in the dark room for additional 2 hours. Agonistic activities on 5-HT4 receptor were evaluated, on the basis of fluorescent values of the cleavage-products, which is generated cAMP-concentration dependently per equal time by beta-lactamase. After exciting to 410 nm of wavelength by using Genios Pro Fluorescence Detector, we measured the fluorescence values at two emission wavelengths (first wavelength: 465 nm, second wavelength: 535 nm). Data were analyzed on the basis of the ratio of fluorescence intensities of each well at the respective wavelengths. For all plates, the concentrations-response curve (1 pM-100 nM) of the control drug (Tegaserod) was included. Each EC50 values of the test compounds were calculated by non-linear regression analysis using GraphPad Prism program, based on the concentration-reactivity values according to 8-different concentrations of the test compounds.

Row | EC50 [nM] | Compound
1 | 0.0024 | CCCCCN[C@H]1CCN(c2nc(Nc3cc(N)cc(C#N)c3)nc3ccccc23)C1 [Example 41, (S)-3-amino-5-[4-{3-(pentylamino)-pyrrolidin-1-yl}quinazolin-2-ylamino]benzonitrile]
2 | 0.05 | CC(C)N[C@H]1CCN(c2nc(Nc3cc(N)cc(C#N)c3)nc3ccccc23)C1 [Example 46, (S)-3-amino-5-[4-{3-(isopropylamino)pyrrolidin-1-yl}quinazolin-2-ylamino]benzonitrile]
3 | 0.01 | COc1ccc2c(N3CC[C@H](NC(C)=O)C3)nc(Nc3cc(N)cc(C#N)c3)nc2c1 [Example 147, (S)—N-(1-[2-{(3-amino-5-cyanophenyl)amino}-7-methoxyquinazolin-4-yl]pyrrolidin-3-yl)acetamide]
4 | 0.04 | CC(=O)N[C@H]1CCN(c2nc(Nc3cc(N)cc(C#N)c3)nc3cc(F)ccc23)C1 [Example 85, (S)—N-[1-{2-(3-amino-5-cyanophenylamino)-7-fluoroquinazolin-4-yl}pyrrolidin-3-yl]acetamide hydrochloride]
5 | 0.06 | CC(=O)N[C@H]1CCN(c2nc(Nc3cc(N)cc(C#N)c3)nc3cc(Cl)ccc23)C1 [Example 81, (S)—N-[1-{2-(3-amino-5-cyanophenylamino)-7-chloroquinazolin-4-yl}pyrrolidin-3-yl]acetamide hydrochloride]
6 | 0.08 | CN[C@H]1CCN(c2nc(Nc3cc(N)cc(C#N)c3)nc3cccc(C)c23)C1 [Example 68, (S)-3-amino-5-[5-methyl-4-{3-(methylamino)pyrrolidin-1-yl}quinazolin-2-ylamino]benzonitrile]
7 | 0.03 | N#Cc1cc(N)cc(Nc2nc(N3CC[C@H](N)C3)c3ccccc3n2)c1 [Example 31, (S)-3-amino-5-{4-(3-aminopyrrolidin-1-yl)-quinazolin-2-ylamino}benzonitrile dihydrochloride]
8 | 0.03 | N#Cc1cc(N)cc(Nc2nc(N3CC[C@H](NC(=O)Cc4cccs4)C3)c3ccccc3n2)c1 [Example 37, (S)—N-[1-{2-(3-amino-5-cyanophenylamino)quinazolin-4-yl}pyrrolidin-3-yl]-2-(thiophen-2-yl)acetamide]
9 | 0.39 | CC(=O)N[C@H]1CCN(c2nc(Nc3cc(N)cc(C#N)c3)nc3cc(C(F)(F)F)ccc23)C1 [Example 28, (S)—N-(1-[2-{(3-amino-5-cyanophenyl)amino}-7-(trifluoromethyl)quinazolin-4-yl]pyrrolidin-3-yl)-acetamide]
10 | 0.01 | COc1ccc2nc(Nc3cc(N)cc(C#N)c3)nc(N3CCC[C@@H](NC(C)=O)C3)c2c1 [Example 21, (R)—N-(1-[2-{(3-amino-5-cyanophenyl)-amino}-6-methoxyquinazolin-4-yl]piperidin-3-yl)acetamide]
11 | 0.01 | CCCN[C@H]1CCN(c2nc(Nc3cc(N)cc(C#N)c3)nc3cccnc23)C1 [Example 159, (S)-3-amino-5-([4-{3-(propylamino)pyrrolidin-1-yl}pyrido[3,2-d]pyrimidin-2-yl]amino)benzonitrile dihydrochloride]
12 | 0.01 | CCN[C@H]1CCN(c2nc(Nc3cc(N)cc(C#N)c3)nc3ccccc23)C1 [Example 141, (S)-3-amino-5-([4-{3-(ethylamino)pyrrolidin-1-yl}quinazolin-2-yl]amino)benzonitrile]

Further lines, the compound ahead of its results:

Row | Compound | EC50 [nM]
13 | CN[C@@H]1CCCN(c2nc(Nc3cc(N)cc(C(F)(F)F)c3)nc3c2CCCC3)C1 [Example 213, (R)—N^1-[4-{3-(methylamino)piperidin-1-yl}-5,6,7,8-tetrahydroquinazolin-2-yl]-5-(trifluoromethyl)benzene-1,3-diamine dihydrochloride] | 0.016
14 | CC(=O)N[C@H]1CCN(c2nc(Nc3cc(N)cc(C#N)c3)nc3c2CCCC3)C1 [Example 88, (S)—N-[1-{2-(3-amino-5-cyanophenylamino)-5,6,7,8-tetrahydroquinazolin-4-yl}pyrrolidin-3-yl]acetamide] | 0.01
15 | COc1ccc2nc(Nc3cc(N)cc(C(F)(F)F)c3)nc(N3CC[C@H](NC(C)=O)C3)c2c1 [Example 14, (S)—N-{1-(2-[{3-amino-5-(trifluoromethyl)-phenyl}amino]-6-methoxyquinazolin-4-yl)pyrrolidin-3-yl}-acetamide] | 0.02
16 | N#Cc1cc(N)cc(Nc2nc3c(c(N4CC[C@H](N)C4)n2)CCC3)c1 [Example 174, (S)-3-amino-5-[{4-(3-aminopyrrolidin-1-yl)-6,7-dihydro-5H-cyclopenta[d]pyrimidin-2-yl}amino]benzonitrile dihydrochloride] | 0.02
17 | CN[C@@H]1CCCN(c2nc(Nc3cc(N)cc(C#N)c3)nc3c2CCC3)C1 [Example 204, (R)-3-amino-5-([4-{3-(methylamino)piperidin-1-yl}-6,7-dihydro-5H-cyclopenta[d]pyrimidin-2-yl]amino)benzonitrile dihydrochloride] | 0.01
18 | CNC(=O)[C@@H]1CCCN(c2nc(Nc3cc(N)cc(C(F)(F)F)c3)nc3c2CCCC3)C1 [Example 123, (R)-1-[2-{3-amino-5-(trifluoromethyl)phenylamino}-5,6,7,8-tetrahydroquinazolin-4-yl]-N-methylpiperidine-3-carboxamide] | 0.01
19 | CCN[C@H]1CCN(c2nc(Nc3cc(N)cc(C#N)c3)nc3c2CCCC3)C1 [Example 105, (S)-3-amino-5-[4-{3-(ethylamino)pyrrolidin-1-yl}-5,6,7,8-tetrahydroquinazolin-2-ylamino]benzonitrile dihydrochloride] | 0.01
20 | CNC(=O)[C@@H]1CCCN(c2nc(Nc3ccc(N)c([N+](=O)[O-])c3)nc3c2CCC3)C1 [Example 224, (R)-1-[2-{(4-amino-3-nitrophenyl)amino}-6,7-dihydro-5H-cyclopenta[d]pyrimidin-4-yl]-N-methylpiperidine-3-carboxamide hydrochloride] | 0.0087
21 | CC(=O)N[C@H]1CCN(c2nc(Nc3ccc(Cl)c(N)c3)nc3ccccc23)C1 [Example 133, (S)—N-(1-[2-{(3-amino-4-chlorophenyl)amino}quinazolin-4-yl]pyrrolidin-3-yl)acetamide] | 0.03
22 | Nc1cc(Nc2nc(N3CCC[C@@H](N)C3)c3ncccc3n2)cc(C(F)(F)F)c1 [Example 167, (R)—N^1-{4-(3-aminopiperidin-1-yl)pyrido[3,2-d]pyrimidin-2-yl}-5-trifluoromethyl)benzene-1,3-diamine dihydrochloride] | 0.09
23 | COc1cc2nc(Nc3cc(N)cc(C(F)(F)F)c3)nc(N3CC[C@H](NC(C)=O)C3)c2cc1OC [Example 7, (S)—N-{1-(2-[{3-amino-5-(trifluoromethyl)-phenyl}amino]-6,7-dimethoxyquinazolin-4-yl)pyrrolidin-3-yl}acetamide] | 0.03
24 | CC(=O)N[C@@H]1CCCN(c2nc(Nc3ccc(N)c(C(F)(F)F)c3)nc3c(C)cccc23)C1 [Example 80, (R)—N-(1-[2-{4-amino-3-(trifluoromethyl)phenylamino}-8-methylquinazolin-4-yl]piperidin-3-yl)acetamide hydrochloride] | 0.04
25 | CC(=O)N[C@H]1CCN(c2nc(Nc3cc(N)cc(C#N)c3)nc3c2CCC3)C1 [Example 168, (S)—N-(1-[2-{(3-amino-5-cyanophenyl)amino}-6,7-dihydro-5H-cyclopenta[d]pyrimidin-4-yl]pyrrolidin-3-yl)acetamide hydrochloride] | 0.01
26 | COc1cccc2c(N3CCC[C@@H](NC(C)=O)C3)nc(Nc3cc(N)cc(C(F)(F)F)c3)nc12 [Example 64, (R)—N-[1-{2-(3-amino-5-trifluoromethylphenylamino)-8-methoxyquinazolin-4-yl}piperidin-3-yl]acetamide] | 0.03
27 | CCCN[C@H]1CCN(c2nc(Nc3cc(N)cc(C#N)c3)nc3c2CCC3)C1 [Example 184, (S)-3-amino-5-([4-{3-(propylamino)pyrrolidin-1-yl}-6,7-dihydro-5H-cyclopenta[d]pyrimidin-2-yl]amino)benzonitrile dihydrochloride] | 0.01
28 | CC(=O)N[C@@H]1CCCN(c2nc(Nc3ccc(N)c([N+](=O)[O-])c3)nc3c2CCC3)C1 [Example 198, (R)—N-(1-[2-{(4-amino-3-nitrophenyl)amino}-6,7-dihydro-5H-cyclopenta[d]pyrimidin-4-yl]piperidin-3-yl}acetamide hydrochloride] | 0.01
29 | N#Cc1cc(N)cc(Nc2nc3c(c(N4CCC[C@@H](N)C4)n2)CCC3)c1 [Example 199, (R)-3-amino-5-[{4-(3-aminopiperidin-1-yl)-6,7-dihydro-5H-cyclopenta[d]pyrimidin-2-yl}amino]benzonitrile dihydrochloride] | 0.02
